Drawing on ChEMBL document CHEMBL1697723, “A predictive ligand-based Bayesian model for human drug-induced liver injury” (Drug Metab Dispos, 2010), this text covers Hepatotoxicity for 14 molecules.

The test system of this data set is Hepatotoxicity. Kind of data set: Human drug-induced liver injury (DILI) modelling dataset from Ekins et al.

For the molecule `COc1cc2c(cc1OC)C(=O)C(CC1CCN(Cc3ccccc3)CC1)C2` (centres undefined) [DONEPEZIL], the Hepatotoxicity result is listed as “DILI negative (training set)”.

For the molecule `Fc1ccc([C@@H]2CCNC[C@H]2COc2ccc3c(c2)OCO3)cc1` [PAROXETINE], the Hepatotoxicity entry is given as “DILI negative (training set)”.

As to `Nc1ccn([C@H]2CC[C@@H](CO)O2)c(=O)n1` [ZALCITABINE], the Hepatotoxicity result (Liver) is reported as “DILI negative (training set)”.

In the case of `Cl.O=C(O)CCCCCCNC1c2ccccc2CCc2ccccc21` [AMINEPTINE HYDROCHLORIDE], the Hepatotoxicity result is recorded as “DILI positive (test set)”.

On to `FCCCCCF` [1,5-DIFLUOROPENTANE], for which the Hepatotoxicity entry is recorded as “DILI positive (test set)”.

Turning to `C[C@]12CC[C@@H]3c4ccc(O)cc4CC[C@H]3[C@@H]1CCC2=O` [ESTRONE], the Hepatotoxicity entry was “DILI positive (training set)”.

For the molecule `CC[C@]1(O)C[C@@H]2CN(CCc3c([nH]c4ccccc34)[C@@](C(=O)OC)(c3cc4c(cc3OC)N(C)[C@H]3[C@@](O)(C(=O)OC)[C@H](OC(C)=O)[C@]5(CC)C=CCN6CC[C@]43[C@@H]65)C2)C1.O=S(=O)(O)O` [VINBLASTINE SULFATE], the Hepatotoxicity entry was “DILI negative (test set)”.

With `Cc1onc(-c2ccccc2Cl)c1C(=O)N[C@@H]1C(=O)N2[C@@H]1SC(C)(C)[C@@H]2C(=O)[O-].O.[Na+]` [CLOXACILLIN SODIUM], the Hepatotoxicity result was “DILI positive (test set)”.

In the case of `CN1CCN(C2=Nc3cc(Cl)ccc3Nc3ccccc32)CC1` [CLOZAPINE], the Hepatotoxicity result is recorded as “DILI positive (training set)”.

Regarding GALLIUM NITRATE HYDRATE, the Hepatotoxicity result was “DILI negative (training set)”.

For the molecule `O=[N+]([O-])O[C@H]1CO[C@H]2[C@@H]1OC[C@H]2O[N+](=O)[O-]` [ISOSORBIDE DINITRATE], the Hepatotoxicity entry is “DILI negative (test set)”.

For the molecule `CCOC(=O)[C@H](CCc1ccccc1)N[C@@H](C)C(=O)N1Cc2ccccc2C[C@H]1C(=O)O`, the Hepatotoxicity entry is “DILI positive (training set)”.

For the molecule AURANOFIN, the Hepatotoxicity entry is given as “DILI positive (test set)”.

`CC(CN1c2ccccc2Sc2ccccc21)N(C)C.Cl` (centres undefined) [PROMETHAZINE HYDROCHLORIDE]: the Hepatotoxicity entry was “DILI negative (training set)”.
